Values quoted from earlier work, collected in patent US11717549B2, “Steviol glycoside solubility enhancers” (CARGILL, INCORPORATED, priority 2017, dated 2023).
Where two headings read alike, the source gives them in different places.

Conditions: cited from earlier work

| Compound | solubility (ppm) (temperature 25 ° C.) | other results |
| --- | --- | --- |
| Cc1ccc(O)c(C(=O)O)c1 [2-hydroxy-5-methylbenzoic acid] |  | solubility (ppm) (temperature 100 ° C.): 2.14E+04 ppm |
| CCC(C)=CCCC(=O)O [5-methyl-4-heptenoic acid] | 4.64E+03 |  |
| CC(C)CC=CC(=O)O [5-methyl-2-hexenoic acid] | 5.37E+03 |  |
| O=C(O)C(=O)c1ccccc1C(=O)O [phthalonic acid] |  | solubility (ppm) (temperature 15 ° C.): 3.49E+05 ppm |
| O=C(O)C(O)c1ccccc1 (racemic) [alpha-hydroxybenzeneacetic acid, (±)] |  | solubility (ppm) (temperature 20 ° C.): 1.21E+05 ppm |
| CCC=CCC(C)C(=O)O (centres unmarked) [2-methyl-4-heptenoic acid] | 4.64E+03 |  |
| CCC(C)CCC(=O)O (racemic) [4-methylhexanoic acid] | 3.56E+03 |  |
| CCC(C)C=CCC(=O)O (centres unmarked) [5-methyl-3-heptenoic acid] | 4.64E+03 |  |
| CCC(=O)O[C@@H](C(=O)O)c1ccccc1 [propionyl-r-mandelic acid] | 5.15E+03 |  |
| CC(C)C1C(=O)NC(=O)NC1=O [isopropylbarbituric acid] |  | solubility (ppm) (temperature 20 ° C.): 5.89E+03 ppm |
| CC(=O)N(CC(C)C(=O)O)c1c(I)cc(I)c(N)c1I (centres unmarked) [iocetamic acid] |  | solubility (ppm) (temperature 37 ° C.): 5.26E+03 ppm |
| CCC(C=CC(=O)O)CC [4-ethyl-2-hexenoic acid] | 6.06E+03 |  |
| Nc1ccc(C(=O)O)cc1 [aniline-4-carboxylic acid] | 4.98E+03 |  |
| CC1(C)[C@@H](C(=O)O)CC[C@@]1(C)C(=O)O (relative stereo) [cis-1,2,2-trimethyl-1,3-cyclopentanedicarboxylic acid, (1R)] | 7.54E+03 |  |
| 1,5-anthraquinone disulfonic acid anilide |  | solubility (ppm) (temperature 18 ° C.): 3.97E+03 ppm |
| CC(=O)Oc1ccccc1C(=O)OC[S+](C)[O-] (centres unmarked) [2-(acetoxy)-benzoic acid, (methylsulfinyl)methyl ester] |  | solubility (ppm) (temperature 21 ° C.): 4.21E+03 ppm |
| Cc1cccc(C(=O)O)c1O [2-hydroxy-3-methylbenzoic acid] |  | solubility (ppm) (temperature 100 ° C.): 1.15E+04 ppm |
| CCCC=CCC(=O)O [3-heptenoic acid] | 5.37E+03 |  |
| CCC=CCCC(=O)O [4-heptenoic acid] | 5.37E+03 |  |
| 1,7-chloroanthraquinone sulfonic acid |  | solubility (ppm) (temperature 18 ° C.): 1.67E+05 ppm |
| Nc1cccc(C(=O)O)c1 [aniline-3-carboxylic acid] |  | solubility (ppm) (temperature 14.9 ° C.): 5.87E+03 ppm |
| CCCOC(=O)OC(C)C(=O)OC (centres unmarked) [propanoic acid, 2-[(propoxycarbonyl)oxy]-, methyl ester] | 5.15E+03 |  |
| O=C1c2cc(S(=O)(=O)O)ccc2C(=O)c2c1cccc2S(=O)(=O)O [1,6-anthraquinone disulfonic acid] |  | solubility (ppm) (temperature 18 ° C.): 3.33E+05 ppm |
| CCC=CC(C)CC(=O)O (centres unmarked) [3-methyl-4-heptenoic acid] | 4.64E+03 |  |
| O=C(O)c1cccc(O)c1 [m-hydroxybenzoic acid] |  | solubility (ppm) (temperature 20 ° C.): 8.45E+03 ppm |
| O=C(O)c1ccnc(C(=O)O)c1C(=O)O [2,3,4-pyridinetricarboxylic acid] |  | solubility (ppm) (temperature 15 ° C.): 1.19E+04 ppm |
| Cc1ccc(C(=O)O)cc1O [3-hydroxy-4-methylbenzoic acid] |  | solubility (ppm) (temperature 100 ° C.): 4.17E+04 ppm |

| Compound | solubility (ppm) (temperature 25 ° C.) | other results |
| --- | --- | --- |
| CCNC(=O)COC(=O)c1ccccc1OC(C)=O [benzoic acid, 2-(acetyloxy)-, 2-(ethylamino)-2-oxoethyl ester] |  | solubility (ppm) (temperature 21 ° C.): 5.49E+03 ppm |
| CC(C)CCCC(=O)O [5-methylhexanoic acid] | 3.93E+03 |  |
| C=CCCCCC(=O)O [6-heptenoic acid] | 5.55E+03 |  |
| O=C(O)c1cccnc1C(=O)O [2,3-pyridinedicarboxylic acid] | 1.09E+04 |  |
| CCCCC(C)=CC(=O)O [3-methyl-2-heptenoic acid] | 4.64E+03 |  |
| CCCCCCCCC(C(=O)O)C(=O)O [octylpropanedioic acid] | 5.53E+03 |  |
| CC(C)CC=CCC(=O)O [6-methyl-3-heptenoic acid] | 4.64E+03 |  |
| O=C(O)c1cc(=O)c(O)c(C(=O)O)o1 [3-hydroxy-4-oxo-4H-pyran-2,6-dicarboxylic acid] | 8.33E+03 |  |
| CCOc1ccc(NC(=O)C(O)C(O)C(=O)O)cc1 (centres unmarked) [ethonyphenyl tartramic acid] |  | solubility (ppm) (temperature 14 ° C.): 3.97E+03 ppm |
| O=C(O)c1cccc(C(=O)O)c1C(=O)O [1,2,3-benzenetricarboxylic acid] |  | solubility (ppm) (temperature 19 ° C.): 2.97E+04 ppm |
| CC(C)(C(=O)O)C(C)(CC(=O)O)C(=O)O [L-camphoronic acid] |  | solubility (ppm) (temperature 16 ° C.): 9.99E+04 ppm |
| CCCC(C)CC(=O)O (centres unmarked) [3-methylhexanoic acid] | 4.80E+03 |  |
| O=C(O)c1ccc(O)c(O)c1 [3,4-dihydroxybenzoic acid] |  | solubility (ppm) (temperature 14 ° C.): 1.79E+04 ppm |
| O=C(O)C(=O)Nc1ccccc1 [oxanilic acid] | 8.17E+03 |  |
| O=C(O)c1cccc([N+](=O)[O-])c1C(=O)O [3-nitrophthalic acid] | 1.97E+04 |  |
| COc1c(Cl)ccc(Cl)c1C(=O)O [3,6-dichloro-2-methoxybenzoic acid] | 4.48E+03 |  |
| O=C1c2cccc(S(=O)(=O)Nc3ccccc3)c2C(=O)c2c1cccc2S(=O)(=O)Nc1ccccc1 [1,8-anthraquinone disulfonic acid anilide] |  | solubility (ppm) (temperature 18 ° C.): 2.27E+04 ppm |
| CCCC1(CC)C(=O)NC(=O)NC1=O [5-ethyl-5-n-propylbarbituric acid] | 5.66E+03 |  |
| O=C(O)C(CO)c1ccccc1 (stereo not drawn) [alpha-(hydroxymethyl)benezeneacetic acid] |  | solubility (ppm) (temperature 20 ° C.): 1.91E+04 ppm |
| O=C(O[C@@H](C(=O)O)c1ccccc1)c1ccccc1 [benzoyl-r-mandelic acid] | 7.78E+03 |  |
| CC(C)(C(=O)O)C(C)(C)C(=O)O [tetramethylbutanedioic acid] |  | solubility (ppm) (temperature 13.5 ° C.): 4.78E+03 ppm |
| CCCC(C)=CCC(=O)O [4-methyl-3-heptenoic acid] | 4.64E+03 |  |
| CC(C)(CCCC(C)(C)C(=O)O)C(=O)O [a,a,a′,a′-tetramethylheptanedioic acid] | 7.55E+03 |  |
| O=C(O)c1cc2c(cc1C(=O)O)OCO2 [hydrastic acid] |  | solubility (ppm) (temperature 15 ° C.): 5.96E+03 ppm |
| O=C1c2cc(S(=O)(=O)O)ccc2C(=O)c2c(Cl)cccc21 [1,6-chloroanthraquinone sulfonic acid] |  | solubility (ppm) (temperature 18 ° C.): 1.67E+05 ppm |
| O=C(O)c1cc(=O)c2ccccc2[nH]1 [4-hydroxy-2-quinolinecarboxylic acid] |  | solubility (ppm) (temperature 100 ° C.): 8.84E+03 ppm |
| CCCC/C=C/C(=O)O [trans-2-heptenoic acid] | 5.37E+03 |  |

| Compound | solubility (ppm) (temperature 25 ° C.) | other results |
| --- | --- | --- |
| CCCC=C(CC)C(=O)O [2-ethyl-2-hexenoic acid] | 6.06E+03 |  |
| CCC(C)CC=CC(=O)O (centres unmarked) [5-ethyl-2-hexenoic acid] | 6.06E+03 |  |
| CC(=O)O[C@@H](C(=O)O)c1ccccc1 [acetyl-r-mandelic acid] | 1.11E+04 |  |
| O=C1c2cccc(S(=O)(=O)O)c2C(=O)c2cccc(S(=O)(=O)O)c21 [1,5-anthraquinone disulfonic acid] |  | solubility (ppm) (temperature 18 ° C.): 2.86E+05 ppm |
| O=C(O)c1cc(Cl)ccc1[N+](=O)[O-] [5-chloro-2-nitrobenzoic acid] | 9.58E+03 |  |
| O=C(O)c1cccc([N+](=O)[O-])c1 [m-nitrobenzoic acid] | 3.53E+03 |  |
| CCC(C)CC=CC(=O)O (centres unmarked) [5-methyl-2-heptenoic acid] | 4.64E+03 |  |
| O=C(O)c1ccc([N+](=O)[O-])c([N+](=O)[O-])c1 [3,4-dinitrobenzoic acid] | 6.66E+03 |  |
| O=C(O)C(O)c1ccccc1 (centres unmarked) [mandelic acid (almonds), mandelic acid] | 1.53E+05 |  |
| CCC(C)(CC)C(=O)O [2-ethyl-2-methylbutanoic acid] | 9.69E+03 |  |
| CCCC(C)C=CC(=O)O (centres unmarked) [4-methyl-2-heptenoic acid] | 4.64E+03 |  |
| CCNC(=O)[C@@H](C)OC(=O)Nc1ccccc1 [D-(−)-carbanilic acid (1-ethylcarbamoyl)ethyl ester] |  | solubility (ppm) (temperature 20 ° C.): 3.49E+03 ppm |
| O=C(O)[C@]1(O)C[C@@H](O)[C@@H](O)[C@H](O)C1 [quinic acid (coffee beans), quinic acid] |  | solubility (ppm) (temperature 9 ° C.): 2.25E+05 ppm |
| O=C(O)CCCCCCCCCC(=O)O [undecanedioic acid] |  | solubility (ppm) (temperature 21 ° C.): 5.07E+03 ppm |
| CCNCCOC(=O)c1ccc(N)cc1 [4-aminobenzoic aciD-2-(ethyl-amino)ethyl ester] |  | solubility (ppm) (temperature not given): 5.59E+03 ppm |
| O=C(O)c1cccc(Br)c1[N+](=O)[O-] [3-bromo-2-nitrobenzoic acid] | 7.36E+03 |  |
| O=C(O)c1ccccc1F [2-fluorobenzoic acid] | 7.15E+03 |  |
| Cc1ccc([N+](=O)[O-])c(C(=O)O)c1 [6-nitro-3-methylbenzoic acid] |  | solubility (ppm) (temperature 20 ° C.): 4.68E+03 ppm |
| CCC(COCCOc1c(I)cc(I)c(NC(C)=O)c1I)C(=O)O (centres unmarked) [iopronic acid] |  | solubility (ppm) (temperature 37 ° C.): 1.97E+04 ppm |
| CC(C)(C)C(CCC(=O)O)CC(=O)O (centres unmarked) [3-tert-butyl adipic acid] | 6.14E+03 |  |
| CCCC=CC(C)C(=O)O (centres unmarked) [2-methyl-3-heptenoic acid] | 4.64E+03 |  |
| O=C(O)c1ccccc1C(F)(F)F [2-(trifluoromethyl)benzoic acid] | 4.78E+03 |  |
| O=C1c2cccc(S(=O)(=O)O)c2C(=O)c2cccc(Cl)c21 [1,5-chloroanthraquinone sulfonic acid] |  | solubility (ppm) (temperature 18 ° C.): 2.50E+05 ppm |
| O=C(O)c1cccc(Cl)c1C(=O)O [3-chlorophthalic acid] |  | solubility (ppm) (temperature 14 ° C.): 2.08E+04 ppm |
| CC(=O)Oc1ccccc1C(=O)O [2-(acetyloxy)benzoic acid] | 4.58E+03 |  |
| C=CCC1(CC)C(=O)NC(=O)N(CCCC)C1=O (centres unmarked) [5-allyl-5-ethylbutylbarbituric acid] |  | solubility (ppm) (temperature 20 ° C.): 3.99E+03 ppm |
